Data on twelve compounds can be found in patent US20260356856A1, “KRAS G12S AND G12C INHIBITORS” (MIRATI THERAPEUTICS, INC., priority 2023, published 2026).

Assay [1] addresses T1, KRas-mediated phosphorylation of ERK in H358 cells (Homo sapiens, UniProt P01116, G12C).
T1 construct: pERK HTRF read-out
Put plainly: Inhibition of KRas-mediated phosphorylation of ERK (HTRF), H358 cells. The assay is classed as cell-based. The following applies: HTRF pERK, 3 h incubation. (In TR-FRET formats the signal depends on donor and acceptor labels being close together.)

In assay [2] the target is T2, KRas-mediated phosphorylation of ERK in A549 cells (Homo sapiens, UniProt P01116, G12S).
T2 construct: pERK HTRF read-out
Description: Inhibition of KRas-mediated phosphorylation of ERK (HTRF), A549 cells. The conditions noted are these: HTRF pERK, 3 h incubation. It is filed as cell-based.

In assay [3] the target is T3, KRas G12C (Homo sapiens, UniProt P01116, G12C).
T3 construct: Biotinylated KRas (corresponding to amino acids 1-169, produced at Accelegan Inc.); biotin (biotinylated); purchased Accelegan Inc
Put plainly: KRas binding assay, TR-FRET displacement of Cy5 labelled tracer. The conditions noted are these: 60-minute incubation at room temperature, 1% DMSO, pH 7.5. The procedure, abridged: (§1)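 Truncated KRas (1-169), biotinylated, Tb-streptavidin donor; one-hour room-temperature incubation; IC50 by four-parameter curve fitting.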

For assay [4], the target named is T4, KRas WT (Homo sapiens, UniProt P01116).
T4 construct: Biotinylated KRas (corresponding to amino acids 1-169, produced at Accelegan Inc.); biotin (biotinylated); purchased Accelegan Inc
The description is as above. The conditions noted are these: 60-minute incubation at room temperature, 1% DMSO, pH 7.5. Summed up:
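Displacement measured on KRas residues 1-169 (biotinylated, terbium-streptavidin labelled); 1 h, RT; 1% DMSO final; HEPES pH 7.5 / MgCl2 / Tween-20 / DTT. IC50: 4-parameter fit.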

In assay [5] the target is T5, KRas G12S (Homo sapiens, UniProt P01116, G12S).
T5 construct: Biotinylated KRas (corresponding to amino acids 1-169, produced at Accelegan Inc.); biotin (biotinylated); purchased Accelegan Inc
Described as above. The conditions noted are these: 60-minute incubation at room temperature, 1% DMSO, pH 7.5. The procedure, abridged:
as §1

The target of assay [6] is T6, KRas-mediated phosphorylation of ERK in MKN1 cells (Homo sapiens, UniProt P01116).
T6 construct: pERK HTRF read-out
Put plainly: Inhibition of KRas-mediated phosphorylation of ERK (HTRF), MKN1 cells. The assay is classed as cell-based. The conditions noted are these: MKN1 cells (KRas WT); HTRF pERK; 3 h incubation. The protocol:
Inhibition of KRas Phosphorylation of ERK (HTRF) by Exemplary Compounds of Formula (Ia) or (Ib)
Cisbio HTRF Advanced pERK Assay Catalog #64AERPEH • Cells: MKN1, PSN1 • Procedure: • 1. Day 1: Seed 6,000 cells/well −25 μl/well in 384-well white solid bottom plate; RPM1_10% FBS. Incubate overnight at 37 °C/5% CO2. • 2.

T2 sequence (P01116 1-188 isoform P01116-2 G12S): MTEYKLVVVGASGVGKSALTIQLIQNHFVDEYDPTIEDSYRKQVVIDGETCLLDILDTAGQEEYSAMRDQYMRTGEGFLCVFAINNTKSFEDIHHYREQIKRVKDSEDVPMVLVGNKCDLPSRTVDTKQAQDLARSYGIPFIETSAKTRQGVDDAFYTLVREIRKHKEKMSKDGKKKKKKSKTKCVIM
T3 sequence (P01116 1-169 isoform P01116-2 G12C): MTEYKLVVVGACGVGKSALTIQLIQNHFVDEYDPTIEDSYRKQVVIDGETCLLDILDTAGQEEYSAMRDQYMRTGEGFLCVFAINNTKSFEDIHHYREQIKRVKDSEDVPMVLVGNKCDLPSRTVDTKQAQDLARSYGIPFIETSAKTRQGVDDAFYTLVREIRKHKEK
T5 sequence (P01116 1-169 isoform P01116-2 G12S): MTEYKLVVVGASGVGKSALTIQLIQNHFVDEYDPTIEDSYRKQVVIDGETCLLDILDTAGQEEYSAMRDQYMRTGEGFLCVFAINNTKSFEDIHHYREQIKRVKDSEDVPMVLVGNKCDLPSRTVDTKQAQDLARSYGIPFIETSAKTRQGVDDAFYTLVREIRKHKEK
T4 sequence (P01116 1-169 isoform P01116-2): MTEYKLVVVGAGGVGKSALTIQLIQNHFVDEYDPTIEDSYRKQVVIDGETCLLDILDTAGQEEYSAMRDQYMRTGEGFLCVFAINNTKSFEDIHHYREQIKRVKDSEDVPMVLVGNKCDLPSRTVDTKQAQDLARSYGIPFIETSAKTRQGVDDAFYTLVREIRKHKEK
T6 sequence (P01116 1-188 isoform P01116-2): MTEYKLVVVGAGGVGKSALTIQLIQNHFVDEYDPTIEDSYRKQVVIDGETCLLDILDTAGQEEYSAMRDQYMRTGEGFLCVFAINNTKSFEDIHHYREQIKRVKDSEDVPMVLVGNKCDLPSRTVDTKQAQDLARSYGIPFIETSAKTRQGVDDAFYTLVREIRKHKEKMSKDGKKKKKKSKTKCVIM
T1 sequence (P01116 1-188 isoform P01116-2 G12C): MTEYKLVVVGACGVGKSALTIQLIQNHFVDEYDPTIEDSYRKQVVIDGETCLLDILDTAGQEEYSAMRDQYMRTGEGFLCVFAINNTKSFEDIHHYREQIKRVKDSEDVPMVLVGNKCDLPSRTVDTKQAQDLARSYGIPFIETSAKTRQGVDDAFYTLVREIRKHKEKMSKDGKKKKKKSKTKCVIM

For `Cc1ccn(C(=O)C2CCN(c3nc(OC[C@@]45CCCN4C[C@H](F)C5)nc4c(F)c(-c5ccc(F)c6sc(N)c(C#N)c56)c(Cl)cc34)C2)n1` (stereo partly drawn) [Example 139, 2-amino-4-(6-chloro-8-fluoro-2-(((2R,7aS)-2-fluorotetrahydro-1H-pyrrolizin-7a(5H)-yl)methoxy)-4-(3-(3-methyl-1H-pyrazole-1-carbonyl)pyrrolidin-1-yl)quinazolin-7-yl)-7-fluorobenzo[b]thiophene-3-carbonitrile], the IC50 (usually the concentration at which inhibition is half-maximal) in assay [1] amounted to 412 nM; in assay [2], 46 nM; in assay [3] it was 5 nM; in assay [4], 16 nM; in assay [5], 5 nM; in assay [6], 1210 nM.
As for `CC(C)C(=O)N(C)C(=O)C1CCN(c2nc(OC[C@@]34CCCN3C[C@H](F)C4)nc3c(F)c(-c4ccc(F)c5sc(N)c(C#N)c45)c(Cl)cc23)CC1` [Example 206, 1-(7-(2-amino-3-cyano-7-fluorobenzo[b]thiophen-4-yl)-6-chloro-8-fluoro-2-(((2R,7aS)-2-fluorotetrahydro-1H-pyrrolizin-7a(5H)-yl)methoxy)quinazolin-4-yl)-N-isobutyryl-N-methylpiperidine-4-carboxamide], the IC50 in assay [1] was found to be 31 nM; in assay [2], 82 nM; in assay [3], 7 nM; in assay [4] it was 8 nM; in assay [5], 9 nM; in assay [6] it was 26 nM.
For the compound `CCc1c(F)ccc2cc(O)cc(-c3ncc4c(N5C[C@H]6C[C@H](C(=O)n7ccc(C)n7)[C@H]6C5)nc(OC[C@@]56CCCN5C[C@H](F)C6)nc4c3F)c12` [Example 161, ((1S,5S,6S)-3-(7-(8-ethyl-7-fluoro-3-hydroxynaphthalen-1-yl)-8-fluoro-2-(((2R,7aS)-2-fluorotetrahydro-1H-pyrrolizin-7a(5H)-yl)methoxy)pyrido[4,3-d]pyrimidin-4-yl)-3-azabicyclo[3.2.0]heptan-6-yl)(3-methyl-1H-pyrazol-1-yl)methanone], the IC50 was greater than 10000 nM in assay [1]; 717 nM in assay [2]; 86 nM in assay [3]; 282 nM in assay [4]; 185 nM in assay [5]; 7280 nM in assay [6].
As to `CN(C(=O)C1CCN(c2nc(OC[C@@]34CCCN3C[C@H](F)C4)nc3c(F)c(-c4ccc(F)c5sc(N)c(C#N)c45)c(Cl)cc23)CC1)c1ccncn1` [Example 290, 1-(7-(2-amino-3-cyano-7-fluorobenzo[b]thiophen-4-yl)-6-chloro-8-fluoro-2-(((2R,7aS)-2-fluorotetrahydro-1H-pyrrolizin-7a(5H)-yl)methoxy)quinazolin-4-yl)-N-methyl-N-(pyrimidin-4-yl)piperidine-4-carboxamide], the IC50 in assay [1] amounted to 29 nM; in assay [2], 142 nM; in assay [3], 9 nM; in assay [4], 10 nM; in assay [5], 13 nM; in assay [6] it was 18 nM.
Consider `N#Cc1c(N)sc2c(F)ccc(-c3c(Cl)cc4c(N5CCN(C(=O)n6ccnn6)CC5)nc(OC[C@@]56CCCN5C[C@H](F)C6)nc4c3F)c12` [Example 226, 4-(4-(4-(1H-1,2,3-triazole-1-carbonyl)piperazin-1-yl)-6-chloro-8-fluoro-2-(((2R,7aS)-2-fluorotetrahydro-1H-pyrrolizin-7a(5H)-yl)methoxy)quinazolin-7-yl)-2-amino-7-fluorobenzo[b]thiophene-3-carbonitrile], for which the IC50 in assay [1] was 1 nM; in assay [2], 69 nM; in assay [3], less than 2 nM; in assay [4] it was 6 nM; in assay [5] it was 8 nM; in assay [6], 4 nM.
Take `CCc1c(F)ccc2cc(O)cc(-c3ncc4c(N5CC[C@@H](C(=O)n6ccc(C)n6)[C@@H](C)C5)nc(OC[C@@]56CCCN5C[C@H](F)C6)nc4c3F)c12` [Example 79, ((3R,4R)-1-(7-(8-ethyl-7-fluoro-3-hydroxynaphthalen-1-yl)-8-fluoro-2-(((2R,7aS)-2-fluorotetrahydro-1H-pyrrolizin-7a(5H)-yl)methoxy)pyrido[4,3-d]pyrimidin-4-yl)-3-methylpiperidin-4-yl)(3-methyl-1H-pyrazol-1-yl)methanone]: the IC50 was determined as 23 nM in assay [1]; 785 nM in assay [2]; 26 nM in assay [3]; 246 nM in assay [4]; 594 nM in assay [5]; 1450 nM in assay [6].
For `Cc1ccn(C(=O)C2CCCN(c3nc(OC[C@@]45CCCN4C[C@H](F)C5)nc4c(F)c(-c5ccc(F)c6sc(N)c(C#N)c56)c(Cl)cc34)C2)n1` (stereo partly drawn) [Example 132, 2-amino-4-(6-chloro-8-fluoro-2-(((2R,7aS)-2-fluorotetrahydro-1H-pyrrolizin-7a(5H)-yl)methoxy)-4-(3-(3-methyl-1H-pyrazole-1-carbonyl)piperidin-1-yl)quinazolin-7-yl)-7-fluorobenzo[b]thiophene-3-carbonitrile], the IC50 in assay [1] was 1200 nM; in assay [2] it was greater than 10000 nM; in assay [3], 19 nM; in assay [4] it was 25 nM; in assay [5] it was 17 nM; in assay [6] it was 404 nM.
For `COC(=O)CCCN(C)c1nc(OC[C@@]23CCCN2C[C@H](F)C3)nc2c(F)c(-c3ccc(F)c4sc(N)c(C#N)c34)c(Cl)cc12` [Example 217, methyl 4-((7-(2-amino-3-cyano-7-fluorobenzo[b]thiophen-4-yl)-6-chloro-8-fluoro-2-(((2R,7aS)-2-fluorotetrahydro-1H-pyrrolizin-7a(5H)-yl)methoxy)quinazolin-4-yl)(methyl)amino)butanoate], the IC50 in assay [1] worked out at 296 nM; in assay [2] it was 6880 nM; in assay [3] it was 5 nM; in assay [4], 9 nM; in assay [5], 7 nM; in assay [6], 763 nM.
Turning to `CCc1c(F)ccc2cc(O)cc(-c3ncc4c(N5CCCC(C(=O)N(C)C(C)=O)CC5)nc(OC[C@@]56CCCN5C[C@H](F)C6)nc4c3F)c12` (stereo partly drawn) [Example 285, N-acetyl-1-(7-(8-ethyl-7-fluoro-3-hydroxynaphthalen-1-yl)-8-fluoro-2-(((2R,7aS)-2-fluorotetrahydro-1H-pyrrolizin-7a(5H)-yl)methoxy)pyrido[4,3-d]pyrimidin-4-yl)-N-methylazepane-4-carboxamide], the IC50 in assay [1] was determined as 4290 nM; in assay [2] it was 151 nM; in assay [3], 882 nM; in assay [4] it was 492 nM; in assay [5], 175 nM; in assay [6], 2420 nM.
Turning to `CCc1c(F)ccc2cc(O)cc(-c3ncc4c(N5CC[C@@H](C(=O)n6ccc(C)n6)[C@H](C)C5)nc(OC[C@@]56CCCN5C[C@H](F)C6)nc4c3F)c12` [Example 71, ((3S,4R)-1-(7-(8-ethyl-7-fluoro-3-hydroxynaphthalen-1-yl)-8-fluoro-2-(((2R,7aS)-2-fluorotetrahydro-1H-pyrrolizin-7a(5H)-yl)methoxy)pyrido[4,3-d]pyrimidin-4-yl)-3-methylpiperidin-4-yl)(3-methyl-1H-pyrazol-1-yl)methanone], the IC50 in assay [1] was found to be 930 nM; in assay [2], 2030 nM; in assay [3], 1690 nM; in assay [4], 2090 nM; in assay [5], 2500 nM; in assay [6] it was 8470 nM.
On to `CCc1c(F)ccc2cc(O)cc(-c3ncc4c(N5CCCC(C(=O)n6ccc(C)n6)CC5)nc(OC[C@@]56CCCN5C[C@H](F)C6)nc4c3F)c12` (stereo partly drawn) [Example 63, (1-(7-(8-ethyl-7-fluoro-3-hydroxynaphthalen-1-yl)-8-fluoro-2-(((2R,7aS)-2-fluorotetrahydro-1H-pyrrolizin-7a(5H)-yl)methoxy)pyrido[4,3-d]pyrimidin-4-yl)azepan-4-yl)(3-methyl-1H-pyrazol-1-yl)methanone], for which the IC50 in assay [1] is 3250 nM; in assay [2] it was 40 nM; in assay [3] it was 96 nM; in assay [4], 145 nM; in assay [5], 20 nM; in assay [6], 1460 nM.
`CCc1c(F)ccc2cc(O)cc(-c3ncc4c(N5CCOCC(C(=O)n6ccc(C)n6)C5)nc(OC[C@@]56CCCN5C[C@H](F)C6)nc4c3F)c12` (stereo partly drawn) [Example 77, (4-(7-(8-ethyl-7-fluoro-3-hydroxynaphthalen-1-yl)-8-fluoro-2-(((2R,7aS)-2-fluorotetrahydro-1H-pyrrolizin-7a(5H)-yl)methoxy)pyrido[4,3-d]pyrimidin-4-yl)-1,4-oxazepan-6-yl)(3-methyl-1H-pyrazol-1-yl)methanone]: the IC50 in assay [1] was 1360 nM; in assay [2] it was greater than 10000 nM; in assay [3], 159 nM; in assay [4], 161 nM; in assay [5], 87 nM; in assay [6], 4560 nM.
